The source made the active and inactive calls.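 The calls were made as follows: active = compounds giving half or more protection of infected cells from virus-caused growth loss, again on retest; inactive = the rest.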 Where a SMILES comes first, the peptide text is derived from it. [ ]: non-standard residue; d: D form. The star is where a group is joined. ξ: configuration not given here. Boc = CC(C)(C)OC(=O)*; ξV = CC(C)C(N)C(=O)O; OBn = c1ccc(CO*)cc1

In the assay the test system is CEM cells HIV-1 protection, formazan growth assay. As to the kind of experiment: NCI AIDS Antiviral Assay. The conditions noted are these: for IC50: measured here: growth of uninfected CEM cells. In a few lines: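 Soluble formazan readout of cell growth; CEM cells ± HIV-1; 5 drug concs. ≥50% protection → retest; ≥50% again = moderately active; reproducible 100% = confirmed active.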

In the case of `CC(C)CCCC(C)[C@H]1CC[C@H]2[C@@H]3CC[C@H]4C[C@@H](CCC=C(c5cc(Cl)c(OCc6cccc(B(O)O)c6)c(C(=O)O)c5)c5cc(Cl)c(OCc6cccc(B(O)O)c6)c(C(=O)O)c5)CC[C@]4(C)[C@H]3CC[C@]12C` (some centres not stated), the half-maximal effective concentration (EC50) (in general, the concentration needed to bring the measured effect to its halfway point) is 138 µM and the IC50 (commonly the concentration needed to halve the response being measured) is above 200 µM.

With `O=C(OCC1OC(n2nc(Cn3nnc(-c4cccnc4)n3)n(-c3cccc4ccccc34)c2=S)C(OC(=O)c2ccccc2)C1OC(=O)c1ccccc1)c1ccccc1` (configuration not stated), the EC50 was above 100 µM and the IC50 is above 100 µM.

As to `Cc1ccc(-c2n[nH]c(=O)[nH]2)cc1[N+](=O)[O-]`, the EC50 was above 200 µM and the 50% inhibitory concentration (IC50) is above 200 µM.

As to `N=C1N(c2ccccc2)C(=S)C(=Nc2ccccc2)N1c1ccccc1`, the EC50 was above 200 µM and the IC50 is 3.89 µM.

As for `CSCCC(NC(=O)OCc1ccccc1)NC(=O)OCc1ccccc1`, the EC50 was above 200 µM and the IC50 was above 200 µM.

Take `CC1(C)S[C@H](c2ccccc2C(=O)O)N[C@@H]1CC(=O)O`: the outcome was inactive.

Turning to `COc1c(CCl)cc(-c2cc(=O)c3ccccc3s2)cc1CCl`, the EC50 was above 200 µM and the IC50 is above 200 µM.

The compound `O=C(O)c1ccc(C(=O)c2ccccc2C(=O)O)cc1` came in with an EC50 above 200 µM and an IC50 above 200 µM.

As for `O=C(O)Cc1ccc2c(c1O)C(=O)c1c(ccc(CC(=O)O)c1O)C2=O`, the EC50 is above 191 µM and the IC50 was determined as 126 µM.

For `CCC1c2ccc3cc(OC)ccc3c2CCC1(C)C(=O)O` (configuration not stated), the outcome was inactive.

As for `CCN(CC)c1ccc(NC(=S)NN(C)C)cc1`, the EC50 is above 200 µM and the IC50 is 52.5 µM.

Regarding `Nc1ccc(C2=N/C(=C\c3cccc(N)c3)C(=O)O2)cc1`, the outcome was inactive.

Turning to `C=C1CC[C@@](C)(c2ccc(CO)cc2)C1C` (some centres not stated), the outcome was inactive.

With `CC(=O)OCC1OC(n2cc(C(F)(F)F)c(=O)[nH]c2=O)CC1OC(C)=O` (configuration not stated), the EC50 is above 200 µM and the concentration for half-maximal inhibition (IC50) is 2.45 µM.

As to `CN1C(=O)C2(C=CC(O)CC2)c2ccccc21` (configuration not stated), the EC50 was above 200 µM and the IC50 is above 200 µM.

Turning to `CC(C)C(NC(=O)CNC(=O)OC(C)(C)C)C(=O)OCc1ccccc1` (stereo not drawn) (Boc-Gly-[ξV]-OBn), the EC50 was above 200 µM and the 50% inhibitory concentration (IC50) stood at 148 µM.

For the compound `Nc1nccc2c1ncn2C1C=C(CO)C(O)C1O` (configuration not stated), the EC50 was above 832 µM and the IC50 stood at 0.324 µM.

On to `O=C(O)C(Cc1ccc(O)cn1)NC(=O)C(F)(F)F` (configuration not stated), for which the EC50 was above 200 µM and the IC50 is above 200 µM.

Regarding `Cc1cc(N(CCC#N)CCC#N)ccc1/C(N=Nc1ccccc1)=N\NC(=O)c1cc(Cl)ccc1O`, the EC50 is above 200 µM and the IC50 stood at 28.8 µM.

`CCCCCCCCN(/N=C/c1c2c(O)c3c(O)c(C)c4c(c3c1O)C(=O)C(C)(O/C=C/C(OC)C(C)C(OC(C)=O)C(C)C(O)C(C)C(O)C(C)/C=C/C=C(C)C(=O)N2)O4)C1OC(COC(=O)c2ccccc2)C(OC(=O)c2ccccc2)C1OC(=O)c1ccccc1` (configuration not stated): the EC50 was above 200 µM and the IC50 came to 10.5 µM.

Take `Oc1ccc2ccccc2c1CNCc1c(O)ccc2ccccc12`: the EC50 is above 21.9 µM and the IC50 was above 21.9 µM.

`O=C1C2=C(Nc3cc([N+](=O)[O-])ccc3N2)OC1c1ccccc1` (configuration not stated): the EC50 was above 17 µM and the half-maximal inhibitory concentration (IC50) was above 17 µM.

`COc1ccc(CCNC(=O)Cc2ccccc2CO)cc1OC`: the EC50 was above 200 µM and the IC50 was above 200 µM.

As to `CCO[C@@H]1CCC(S(=O)c2ccc(C)cc2)=CO1` (some centres not stated), the EC50 was above 200 µM and the IC50 was above 200 µM.

Turning to `O=c1nc(Oc2ccccc2)nc2cnccn12`, the EC50 was above 372 µM and the half-maximal inhibitory concentration (IC50) was 145 µM.

Consider `Cc1cc(C)c(C(=O)c2c(C)cccc2C(=O)O)c(C)c1`, for which the EC50 is above 200 µM and the IC50 is above 200 µM.

As for `CC1CC2C(=O)N(c3ccccc3)C(=O)C2c2[nH]c3ccccc3c21` (configuration not stated), the outcome was inactive.

Take `O=C(c1ccccc1)N1C2C3CC(OCc4ccccc4)(OCc4ccccc4)C(O3)C21` (configuration not stated): the EC50 is above 17 µM and the IC50 is above 17 µM.

`O=C(CC(C(=O)c1cccs1)c1ccsc1)c1ccc(Cl)cc1` (configuration not stated): the EC50 is above 200 µM and the IC50 was 52.5 µM.

As for `O=C1/C(=C\c2ccc([N+](=O)[O-])cc2)CS(=O)(=O)C/C1=C/c1ccc([N+](=O)[O-])cc1`, the EC50 is above 0.2 µM and the IC50 worked out at 0.0309 µM.

Take `Brc1cc2nn(-c3ccccc3)nc2c2nonc12`: the EC50 is above 200 µM and the IC50 was above 200 µM.

Turning to `COc1ccc(/C=C(\NC(=O)c2ccccc2)C(=O)NN(C)c2ccnc3cc(Cl)ccc23)cc1OC`, the EC50 is above 200 µM and the half-maximal inhibitory concentration (IC50) was 56.2 µM.

On to `COc1c(C)c(C/C=C(\C)CCCCO)c(OC)c(OC)c1OC`, for which the EC50 was above 200 µM and the IC50 amounted to 26.3 µM.

For the compound `Cn1c(=O)c2c(nc3sc4ncccc4c(=O)n32)n(C)c1=O`, the EC50 was above 151 µM and the IC50 was above 151 µM.

For `Clc1ccccc1C[P+](c1ccccc1)(c1ccccc1)c1ccccc1`, the EC50 is above 200 µM and the IC50 turned out to be 4.57 µM.

Regarding `OCn1nnc2ccccc21`, the outcome was inactive.

Regarding `O=[N+]([O-])c1c(C=Nc2ccccc2)oc(-c2ccc3c(c2)OCO3)c1-c1ccc2c(c1)OCO2`, the EC50 is above 49 µM and the IC50 is above 49 µM.

As for `Fc1cccc2c(SCc3ccc(Cl)cc3Cl)cnnc12`, the EC50 was above 15.5 µM and the IC50 was above 15.5 µM.

As to `O=c1[nH]c2cnn(-c3ccccc3)c2c(=O)n1OS(=O)(=O)c1ccccc1`, the EC50 is above 200 µM and the half-maximal inhibitory concentration (IC50) was above 200 µM.

For `c1ccc2c(c1)CCN2CCN1CCc2ccccc21`, the EC50 was above 200 µM and the IC50 was 145 µM.

As for `COc1ccc(N2C(=O)C(N3C(=O)C=CC3=O)C2C=O)cc1` (configuration not stated), the EC50 is above 166 µM and the IC50 is above 166 µM.

`COc1c(-c2ccccc2)oc2c(CP(=O)(OC)OC)cccc2c1=O`: the EC50 was above 200 µM and the half-inhibitory concentration (IC50) was 56.2 µM.

Consider `O=c1sc2ncccc2n1-c1ccc([N+](=O)[O-])cn1`, for which the EC50 was above 91.2 µM and the IC50 was above 91.2 µM.

Turning to `CCOC(=O)c1ccccc1NNC(=O)CCC(=O)O`, the EC50 is above 224 µM and the 50% inhibitory concentration (IC50) is 219 µM.

Turning to `CCN(CC)CC(C(=O)Nc1c(C)cccc1C)/C(C)=N\NC(=O)c1ccncc1` (configuration not stated), the EC50 is above 33.1 µM and the IC50 is above 33.1 µM.

With `CC1=C[C@H]2O[C@@H]3C[C@H]4OC(=O)/C=C\C=C\[C@H]([C@@H](C)O)OC[C@H](O)[C@@]5(C)O[C@@H]5C(=O)OC[C@@]2(C[C@H]1O)[C@]4(C)C31CO1` (some centres not stated), the EC50 is above 4.47 µM and the IC50 was found to be 0.00575 µM.

On to `Cc1nc2c(n1-c1ccc(Br)cc1)C(=O)c1ccccc1C2=O`, for which the EC50 is above 49 µM and the IC50 came to 5.25 µM.

Turning to `CC1=C2OCS(=O)C2C2C(=O)N(c3ccccc3)C(=O)C2C1` (configuration not stated), the EC50 is above 794 µM and the 50% inhibitory concentration (IC50) amounted to 501 µM.

Consider `CC(C)C1COC(c2cccc(C3=N[C@@H](C(C)C)CO3)n2)=N1` (some centres not stated), for which the EC50 is above 24 µM and the IC50 is above 24 µM.

With `c1ccc(P(c2ccccc2)c2ccc(P(c3ccccc3)c3ccccc3)nn2)cc1`, the EC50 is above 8.51 µM and the IC50 is above 8.51 µM.

As for `Nc1cc2nc(=O)cc3n2c(n1)SC3`, the EC50 is above 67.6 µM and the IC50 was above 67.6 µM.

Take `c1ccc2c(c1)CCN2CCc1c[nH]c2ccccc12`: the EC50 was above 200 µM and the IC50 is 178 µM.

Regarding `COC1CC[C@@H]2CC(=O)CC[C@]2(C)C1=O` (some centres not stated), the outcome was inactive.

In the case of `COc1cccc2c1N(COC(C)=O)C(=O)C1C=CC(C)(C)OC21` (configuration not stated), the EC50 was above 100 µM and the 50% inhibitory concentration (IC50) stood at 56.2 µM.

Take `Cc1ccc(S(=O)(=O)N2CCC[C@@H]2C(=O)O[C@@H]2CCC3CC=CC32)cc1` (some centres not stated): the EC50 is above 200 µM and the half-inhibitory concentration (IC50) was found to be 12.6 µM.

In the case of `O=c1[nH]cnc2c1CN(c1ccccc1)C2`, the EC50 was above 234 µM and the IC50 was above 234 µM.

Take `CC12CC3CC(C)(C1)CC(SC(=N)N)(C3)C2`: the EC50 was above 776 µM and the IC50 came to 38.9 µM.

In the case of `O=C1c2cccc3cccc(c23)C(=O)N1O`, the EC50 is above 100 µM and the IC50 worked out at 7.41 µM.

With `CCOC(=O)C(=O)Nc1cc(Cl)c(Cl)cc1Cl`, the EC50 was above 63.1 µM and the IC50 was above 63.1 µM.

`CCOP(=O)(OCC)C(C)(CC)/N=C(\N)NC#N` (configuration not stated): the EC50 is above 200 µM and the IC50 was above 200 µM.

Turning to `Cc1cc(=O)oc2cc(O)cc(O)c12`, the EC50 was above 1290 µM and the half-maximal inhibitory concentration (IC50) turned out to be 166 µM.

Take `C=C(c1ccccc1)[P+](c1ccccc1)(c1ccccc1)c1ccccc1`: the EC50 was above 20 µM and the IC50 worked out at 0.219 µM.

As to `COC(=O)[C@@H](O)[C@](O)(CCC(C)C)C(=O)O[C@@H]1C(OC)=C[C@]23CCCN2CCc2cc4c(cc2[C@H]13)OCO4`, the EC50 is above 245 µM and the IC50 is 0.575 µM.

Take `Cn1c(=O)c(=O)n(C)c2nc3ccccc3nc21`: the EC50 is above 4.27 µM and the IC50 is above 4.27 µM.

For the compound `Cc1ccc(Sc2ccc(C)cc2[N+](=O)[O-])c([N+](=O)[O-])c1`, the EC50 is above 97.7 µM and the IC50 was above 97.7 µM.

For the compound `CN(CCN(C)C(=S)NN)C(=S)NN`, the EC50 is above 200 µM and the IC50 was determined as 132 µM.

As for `Oc1cc2ccc3c(c2cc1O)CCc1cn[nH]c1-3`, the EC50 is above 10.7 µM and the IC50 was above 10.7 µM.

Turning to `COc1ccc(-n2nc(C)ccc2=O)cc1`, the EC50 is above 1150 µM and the IC50 stood at 776 µM.

Regarding `O=c1c(O)c(-c2ccc3c(c2)OCO3)oc2c(Cl)cc(Cl)cc12`, the EC50 was above 100 µM and the IC50 is above 100 µM.

`COC(=O)c1ccn2c(N(C)C)[n+]3ccc(C(=O)OC)cc3c2c1`: the EC50 is above 100 µM and the IC50 was above 100 µM.

For the compound `CC(C)C1=CC2C3C(=O)NC(=O)C3C1C1C3C(=O)NC(=O)C3C21` (configuration not stated), the EC50 was above 794 µM and the IC50 is above 794 µM.

As for `CCOC(=O)/C(C#N)=C/c1ccc(Br)cc1`, the EC50 was above 93.3 µM and the IC50 was above 93.3 µM.

These data come from PubChem BioAssay AID179 (DTP/NCI, 2004).
